Reference: patent US8895069B2, “Drug delivery system using hyaluronic acid-peptide conjugate micelle” (Postech Academy-Industry Foundation, priority 2011, dated 2014)
Ends that are not written are not given here.

Legend:
[1] = Appearance / water solubility in aqueous solution; format: physicochemical; details: PBS, final peptide concentration 1.25 mg/mL
Method: The anti-Flt1 peptide (GGNQWFI) (SEQ ID NO: 3) and the hyaluronic acid-peptide conjugate with a lower peptide content as prepared from Preparation Example 3 were dissolved in 4004, of PBS to have a final peptide concentration of 1.25 mg/mL, respectively. The amount of the anti-Flt1 peptide contained in each solution was measured with a changeable UV transilluminator (DUT-260, Core Bio System, Korea) by using 312 nm of light source. The formation of the hyaluronic acid-peptide micelle in an aqueous solution was confirmed by using a transmission electron microscope (TEM) (Hitachi, Tokyo, Japan). For a TEM analysis, 10 μL of the hyaluronic acid-peptide conjugate solution was dropped onto a 300 mesh copper TEM grid with a carbon film and then was dried. The average particle size was calculated out from the diameters obtained from the images of 30 particles.

[2] = test system: methacholine airway hyper-responsiveness; test: Methacholine airway hyper-responsiveness (Penh) in OVA/LPS asthma model; format: in vivo, BALB/c mice; details: 24 hours after the last allergen challenge, intranasal
Method: The biological activity of the hyaluronic acid-peptide conjugate with a lower peptide concentration (HA-GGNQWFI) in accordance with Preparation Example 3 was measured through the reaction to methacholine. Specifically, as to the airway hyper-responsiveness (AHR), the laboratory rat (in vivo) was made to keep exercising naturally without being put under anesthesia and the enhanced pause (Penh), the number reflecting the airway obstruction as represented by Mathematical Equation 1 was measured by using plethysmography. In this experimentation was used a non-invasive method wherein the measurement was conducted without correcting or putting the laboratory animal under anesthesia. Penh=[(Te/RT−1)×(PEF/PIF)] [Mathematical Equation 1]
In Mathematical Equation 1, Te represents an expiratory time (seconds), RT represents a relaxation time (seconds), PEF represents a peak expiratory flow […], and PIF represents a peak inspiratory flow (ml/s).
As the laboratory mouse, BALB/c mice (female, 6 week old, 5 per each group) were used. […]
The pulmonary function was measured on the 23th day by using the non-invasive whole body plethysmographs for the mouse that was not put under anesthesia. […] The aerosol was prepared by using an ultrasonic nebulizer and the laboratory mouse was exposed to methacholine for 3 minutes and then the Penh was measured for 5 minutes.

[3] = test system: vascular hyperpermeability due to diabetic retinopathy; test: Vascular hyperpermeability due to diabetic retinopathy, streptozotocin, dextran-FITC fluorescence (Experimental Example 10); format: in vivo, Sprague Dawley (SD) male rats; details: hyaluronic acid test group = 100%; intravitreal 10 μL, peptide 5 mg/ml; four weeks after streptozotocin
Excerpt: Four groups consisted of a hyaluronic acid test group, an anti-Flt1 peptide (GGNQWFI) (SEQ ID NO: 3) test group, a test group of the hyaluronic acid-peptide conjugate with a lower peptide content (with 20 peptides being conjugated per one molecule of HA-TBA) as prepared from Preparation Example 3 (HA-GGNQWFI), and a test group of the hyaluronic acid-peptide conjugate with a higher peptide content (with 28 peptides being conjugated per one molecule of HA-TBA) as prepared from Preparation Example 3(HA-GGNQWFI(2)). The anti-Flt1 peptide sample and the hyaluronic acid-peptide conjugate samples were made to have an identical peptide concentration of 5 mg/ml. First, each rat was injected intraperitonially with 60 mg/kg of streptozotocin dissolved in 10 mM citrate buffer at pH 4.5 in order for diabetes to be induced. In three days after the injection of streptozotocin, the rat was determined to develop diabetes when its serum concentration of glucose was at least 300 mg/dL. In a week after the injection of streptozotocin, 10 μL of each sample solution was injected into the vitroeus body. In four weeks after the injection of streptozotocin, the effect of inhibiting vascular hyperpermeability due to diabetic retinopathy was determined by the fluorescence microscopic analysis with using dextran-FITC (MW=10,000) in the same manner as set forth in Experimental Example 7-1.

| Substance | appearance in the aqueous solution (water solubility) [1] | methacholine airway hyper-responsiveness [2] | average intensity of the fluorescence of retina (dextran-FITC) [3] [%] |
| --- | --- | --- | --- |
| GGNQWFI [anti-Flt1 peptide, GGNQWFI] | became turbid | inferior to the hyaluronic acid-peptide conjugate | 79.0±9.2 |
| HA-GGNQWFI: hyaluronic acid (MW 100 kDa) conjugated with GGNQWFI, 20 peptides per one molecule of HA-TBA (also: conjugated to hyaluronic acid, about 20 peptides per HA) | became clear | greatly reduced to a level similar to that of the normal control group | 58.4±7.8 |
